Measurements taken from article PMC10584170, “Machine learning-based phenotypic imaging to characterise the targetable biology of Plasmodium falciparum male gametocytes for the development of transmission-blocking antimalarials” (PLOS Pathogens, 2023).

Assays:
[1] = tested on: P. falciparum male gametocytes; experiment: P. falciparum Dual Gamete Formation Assay (PfDGFA), male readout (exflagellation); type: cell-based, Plasmodium falciparum NF54; settings: for Average inhibition male (%): average of replicates; for % inhibition male (individual replicates) R1: replicate R1; for % inhibition male (individual replicates) R4: replicate R4; for % inhibition male (individual replicates) R3: replicate R3; for Activity: hit = >50% inhibition in male or female readout in at least 3 replicates, 0 = no class assigned
How it was run: (§1)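 Mature NF54 gametocytes (day 14) were incubated with compound for 24 h at 37°C under 1% O2/3% CO2, then triggered with xanthurenic acid ookinete medium plus Cy3-anti-Pfs25. Exflagellation was imaged by brightfield; after a further 24 h at 28°C, Pfs25-positive female gametes were imaged by fluorescence and counted by automated image analysis.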

[2] = tested on: P. falciparum female gametocytes; experiment: P. falciparum Dual Gamete Formation Assay (PfDGFA), female readout (Pfs25-positive female gametes); type: cell-based, Plasmodium falciparum NF54; settings: for Average inhibition female (%): average of replicates; for % inhibition female (individual replicates) R1: replicate R1; for % inhibition female (individual replicates) R3: replicate R3; for % inhibition female (individual replicates) R4: replicate R4
How it was run: as §1

[3] = 2µM, 24h preincubation with gametocytes prior to induction of gametogenesis
[4] = 2µM, 24h preincubation, number of replicates with >50% inhibition in the male readout
[5] = 2µM, 24h preincubation, number of replicates with >50% inhibition in the female readout
[6] = 2µM, 24h preincubation, hits selected on >50% inhibition in the male readout across replicates
[7] = PfDGFA at 2µM, 24h preincubation
[8] = 2µM, 24h preincubation, hits selected on >50% inhibition in the female readout across replicates
[9] = PfDGFA at 2µM, 24h preincubation with gametocytes
[10] = number of replicates with >50% inhibition in the male readout, 2µM
[11] = number of replicates with >50% inhibition in the female readout, 2µM
[12] = PfDGFA at 2µM, 24h preincubation with gametocytes prior to induction of gametogenesis

| Compound | Average inhibition male (%) [1, 3] | % inhibition male (individual replicates) R1 [1, 3] | % inhibition male (individual replicates) R4 [1, 3] | Average inhibition female (%) [2, 3] | % inhibition female (individual replicates) R1 [2, 3] | % inhibition female (individual replicates) R3 [2, 3] | % inhibition female (individual replicates) R4 [2, 3] | % inhibition male (individual replicates) R3 [1, 3] | HitlevelM [1, 6] | Activity [1, 7] | HitlevelF [2, 8] | further results |
| --- | --- | --- | --- | --- | --- | --- | --- | --- | --- | --- | --- | --- |
| Oc1ccc2[nH]cc(C3CCN(CCCNCc4ccc(-c5ccccc5)cc4)CC3)c2c1 [TCMDC-139047] | 41.4% | 26.8% | 40.8% | 20.7% | 11.5% | 19.3% | 14.8% | – | – | – | – | HitlevelM [1, 4]: 1; HitlevelF [2, 5]: 0 |
| NC(CC1CC(=O)N1CC(=O)O)C(=O)O (centres unmarked) [TCMDC-139050] | -4.7% | 15.3% | -29.8% | 6.8% | 12.5% | 4.8% | 14.4% | -15.7% | 0 | 0 | 0 | – |
| COC(=O)c1ccc(-c2ccc(-c3cccnc3)cc2C)cc1 [TCMDC-139074] | 18.8% | 21.7% | 3.9% | 13.5% | 26.9% | 10.2% | 0.5% | 27.9% | 0 | 0 | 0 | – |
| CN(C)CCCc1cc2c(cc1Cl)CCN2C(=O)Nc1ccc(-c2ccncc2)c2ccccc12 [TCMDC-139215] | 2.0% | 5.2% | 8.2% | 5.1% | 27.9% | -29.4% | 20.5% | 1.0% | 0 | 0 | 0 | – |
| CN1CCN(c2cc3c(cc2Cl)CCN3C(=O)Nc2ccc(NC(=O)c3ccc(C(F)(F)F)cc3)cc2)CC1.Cl [TCMDC-139270] | – | – | – | – | – | – | – | – | – | – | – | Average inhibition male (%) [1, 9]: 84.1%; % inhibition male (individual replicates) R1 [1, 9]: 90.7%; % inhibition male (individual replicates) R3 [1, 9]: 63.5%; % inhibition male (individual replicates) R4 [1, 9]: 92.9%; HitlevelM [1, 10]: 4; Average inhibition female (%) [2, 9]: 59.6%; % inhibition female (individual replicates) R1 [2, 9]: 37.1%; % inhibition female (individual replicates) R3 [2, 9]: 50.9%; % inhibition female (individual replicates) R4 [2, 9]: 69.9%; HitlevelF [2, 11]: 3 |
| CCCCCCCN1CC[C@@H](CCCc2ccnc3ccc(OC)cc23)[C@@H](CCN)C1.O=C(O)C(=O)O [TCMDC-139278] | 60.9% | 62.0% | 48.5% | 13.3% | 23.8% | -1.7% | 20.4% | – | 2 | 0 | 0 | – |
| COc1ccc(COc2cc(NCCCN)nc3ccccc23)cc1 [TCMDC-139286] | 30.7% | 52.7% | 44.0% | 19.5% | 25.0% | 18.0% | 26.8% | 36.6% | – | – | – | HitlevelM [1, 4]: 1; HitlevelF [2, 5]: 0 |
| COc1cc(NCC(O)CNc2cc(OC)c3ccccc3n2)nc2ccccc12 [TCMDC-139360] | 53.4% | 68.1% | 64.9% | 25.6% | 27.5% | 10.8% | 36.1% | 33.7% | – | – | – | HitlevelM [1, 4]: 2; HitlevelF [2, 5]: 0 |
| COc1ccc(C(=O)Nc2cc(Cl)c3c(c2)C2CCCN2CC3)cc1C(F)(F)F.Cl (centres unmarked) [TCMDC-139417] | – | – | – | – | – | – | – | – | – | – | – | % inhibition male (individual replicates) R1 [1, 12]: -1.3%; % inhibition male (individual replicates) R4 [1, 12]: 9.8%; Average inhibition male (%) [1, 7]: 13.2%; % inhibition female (individual replicates) R1 [2, 12]: 2.5%; % inhibition female (individual replicates) R3 [2, 12]: -4.3%; % inhibition female (individual replicates) R4 [2, 12]: 1.3%; Average inhibition female (%) [2, 7]: 1.8% |
| N=C(N)Nc1nc(-c2cccc(NC(=O)NCCc3c[nH]c4ccc(OCc5ccccc5)cc34)c2)cs1 [TCMDC-139557] | 6.6% | 1.3% | 10.9% | 5.9% | 1.1% | -17.0% | 37.8% | 4.0% | 0 | 0 | 0 | – |
| CC(Cc1ccc(CNC(=O)c2ccc(CC(C)NCCc3cccc(Cl)c3)cc2)cc1)NCCc1cccc(Cl)c1 (centres unmarked) [TCMDC-139659] | 33.9% | 26.3% | 42.9% | 5.1% | 10.4% | -19.4% | -1.7% | 2.8% | 1 | 0 | 0 | – |
| O=C(/C=C/c1ccc(Cl)c(Cl)c1)N1CCC2CC(N3CCC(c4c[nH]c5ccccc45)CC3)CCC2C1 (centres unmarked) [TCMDC-139677] | 6.9% | -0.85% | 12.3% | 4.1% | 10.8% | -1.7% | 7.4% | 2.4% | 0 | 0 | 0 | – |
| CC(=O)N(Cc1ccc(CC(C)NCCc2cccc(Cl)c2)cc1)Cc1ccc(CC(C)NCCc2cccc(Cl)c2)cc1 (centres unmarked) [TCMDC-139678] | 26.9% | 39.1% | 27.9% | 14.1% | 15.3% | 11.1% | 16.3% | 19.2% | 0 | 0 | 0 | – |
| COc1ccc(CCNC(C)Cc2ccc(C(=O)Nc3ccc(CC(C)NCCc4cccc(Cl)c4)cc3)cc2)cc1 (centres unmarked) [TCMDC-139750] | – | – | – | – | – | – | – | – | – | – | – | Average inhibition male (%) [1, 9]: 69.1%; % inhibition male (individual replicates) R1 [1, 9]: 78.2%; % inhibition male (individual replicates) R3 [1, 9]: 37.9%; % inhibition male (individual replicates) R4 [1, 9]: 84.9%; HitlevelM [1, 10]: 3; Average inhibition female (%) [2, 9]: 25.6%; % inhibition female (individual replicates) R1 [2, 9]: 25.4%; % inhibition female (individual replicates) R3 [2, 9]: 18.2%; % inhibition female (individual replicates) R4 [2, 9]: 15.5%; HitlevelF [2, 11]: 0 |
